“And” between values parts separate entries of the source, which are not always exact repeats. Identical values can stand only once. Like-named read-outs stand apart in the source and are kept apart here. Marks after values point to notes of the source that are not given here.
Key:
human melanoma = assay: Number of cells with melanin in inoculated human melanoma (Goryaev's chamber); type: in vivo; conditions: 4.5 mg/kg p.o. daily for 3 weeks
Description: Mice with subcutaneously inoculated human melanoma as described in Example 1 were daily p.o. dosed with Dicarbamine at a higher single dose (4.5 mg/kg for 3 weeks from the moment of the tumor transplantation).
Animals were sacrificed three weeks after the tumor transplantation. By the time of sacrifice, the volume of the tumors was on average 150 mm^3. Following sacrifice, the tumors were excised from the mice and disintegrated with Versen solution, and the cell fraction containing cells with pigment was isolated. The number of cells with pigment was calculated in the Goryaev's chamber using light microscopy.

Friend erythroblastosis = assay: Subcutaneously inoculated Friend erythroblastosis growth; type: in vivo, mice
Description: The studies were conducted on male mice hybrid 100 BDF1 that were divided into groups containing 10 mice each. Lineal DBA2 mice were used for passaging FEB in vivo.
A strain of Friend erythroblastosis was obtained from the bank of tumor strains of the GU RCRC named after N. N. Blokhin of the RAMS. It was twice passaged intraperitoneally using generations 3-8 in subcutaneous inoculation. The inoculation was done using a cellular suspension of 1×10^6 cells in 0.3 ml […].
Solutions of the tested compounds were intra-gastrically daily administered to mice using a probe from day 3 to day 7 after tumor inoculation.
Therapeutic efficacy was assessed on the basis of tumor growth inhibition (TGI, %) and an average life span (ALS). Increase in life span was determined by the commonly accepted criterion T/C (%), which was calculated as a ratio between ALS in the test and control groups. Tumor growth rate Vt/V1 was calculated on the basis of change growth in average tumor volumes.

[1] = type: in vivo, mice
From the text: Two groups of mice are used.

[2] = system: hematopoietic cells of the bone marrow; assay: Electronic microscopy of bone marrow of ovarian cancer patients during chemotherapy; type: in vivo, human; conditions: Cyclophosphane 600 mg/m^2 + Carboplatin 400 mg/m^2 along with Dicarbamine 100 mg
Description: The patients were divided into two equal groups: group I—patients who received the chemotherapy alone and group II—patients who received the chemotherapy along with Dicarbamine administration. […] The average chemotherapy course of one patient included 6 courses without Dicarbamine and 5.7 courses with Dicarbamine. In group II patients received the chemotherapy along with Dicarbamine dosing at a single dose 100 mg beginning 5 days before the first course and then until the beginning of next course at the same dose. […] Puncture biopsy of the bone marrow and peripheral blood for electronic microscopy were taken from patients prior to the chemotherapy and at the end of treatment course with Dicarbamine or without it. Fresh bone marrow puncture biopsies were placed on a slide plate and stirred many times with a stirring rod until small dense fragments were obtained. […] Semi-thin and ultra-thin slices were prepared on the LKB-III ultratome (Sweden). The semi-thin slices were stained with Methylene or Toluidine blue, ultra-thin slices were stained with an aqueous solution of uranyl acetate and lead citrate.

human M-6 melanoma = assay: Human M-6 melanoma growth dynamics, Dicarbamine combined with chemotherapy; type: in vivo
Description: The study was conducted according to the technique described in Example 3. Dicarbamine was administered daily p.o. at the single dose 4.5 mg/kg for 3 weeks from the moment of tumor appearance (from day 15 to day 36). In the groups of combined treatment Dicarbamine was also administered daily at the single dose 4.5 mg/kg for 3 weeks (days 15-36) in combination with a single administration of anti-tumor cytostatic agents Cysplatin at dose 6 mg/kg i.v. (day 25) and Aranoza at dose 40 mg/kg i.p. (day 27). Cytostatic therapy with was commenced when the average tumor volume reached 200±62 mm^3. At days 18, 25, 33, 39, 46 and 53 from the transplantation tumor volumes were measured and the value Vt/Vt−1 was calculated and expressed as a percentage.

[3] = system: stage III-IV ovarian cancer; assay: Efficacy of therapy after two chemotherapy courses; type: in vivo, human
Description: Efficacy of therapy was assessed in groups of patients following two courses of the chemotherapy with or without Dicarbamine according to the above described scheme. Efficacy was assessed according to the generally accepted parameters: CR—complete remission, PR—partial remission, SB—stabilization; and Progr. —progression.

[4] = system: murine B-16 melanoma cells; assay: IRCP of B-16 cells, peptide derivatives at 100 μM; type: cell-based
Description: The study was conducted on a continuous cell culture of murine B-16 melanoma growing in the form of a monolayer in a tissue culture. α-Interferon, selected as a preparation of comparison, was administered at concentration 70 IU/ml.
The tested compounds were transferred into stock solution (1,000 μM), sterilized through filers with 0.22 μm pore diameter and then diluted down to a concentration of 100 μM.
The effect of compounds on cells was assessed on the basis of initial rate of cell proliferation (IRCP). This index was determined by numbering the number of cells in micro colonies during the first days following affection in “test” (with preparations) and “control” (without preparations) dishes, by analyzing 50 colonies in each of them.
Calculations of cell numbers in micro colonies were done for every “point”. Toxicity was judged by B-16 melanoma cell survival, which was determined by the ratio between numbers of the grown colonies in “test” and “control” dishes.

[5] = 1.5 mg/kg daily for 5 days, day 8
[6] = 1.5 mg/kg daily for 5 days, day 13
[7] = 1.5 mg/kg daily for 5 days, day 19
[8] = 4.5 mg/kg daily for 5 days, day 8
[9] = 4.5 mg/kg daily for 5 days, day 13
[10] = 4.5 mg/kg daily for 5 days, day 19

O=C(O)CCCC(=O)NCCc1c[nH]cn1 [Dicarbamine]
increase of number of cells synthesizing melanin vs control (human melanoma): 3 fold | Number of cells with melanin (human melanoma; individual tumors 1-7): 95 (2×) and 110 and 130 and 106 and 111 (2×) | Relative tumor volumes Vt/V1 at days after tumor inoculation (Friend erythroblastosis; [5]): 1.0 | Tumor growth inhibition (Friend erythroblastosis; [5]): 61% | Relative tumor volumes Vt/V1 (Friend erythroblastosis; [6]): 1.56 | Tumor growth inhibition (Friend erythroblastosis; [6]): 78* % | Relative tumor volumes Vt/V1 (Friend erythroblastosis; [7]): 3.0 | Tumor growth inhibition (Friend erythroblastosis; [7]): 55% | Relative tumor volumes Vt/V1 (Friend erythroblastosis; [8]): 1.0 | Tumor growth inhibition (Friend erythroblastosis; [8]): 62% | Relative tumor volumes Vt/V1 (Friend erythroblastosis; [9]): 2.3 | Tumor growth inhibition (Friend erythroblastosis; [9]): 58% | Relative tumor volumes Vt/V1 (Friend erythroblastosis; [10]): 3.76 | Tumor growth inhibition (Friend erythroblastosis; [10]): 38% | Cellularity of bone marrow (number of cells) ([1]; CPH 200 mg/kg (Dicarbamine group: 0.5 mg/kg 5 days prior and 5 days after), day 3): 14.5 ± 3.43 millions | Cellularity of bone marrow (number of cells) ([1]; day 5 after CPH): 21.55 ± 1.92 millions | Cellularity of bone marrow (number of cells) ([1]; day 7 after CPH): 32.35 ± 3.57 millions | Cellularity of bone marrow (number of cells) ([1]; day 10 after CPH): 33.8 ± 3.85 millions | Cellularity of bone marrow (number of cells) ([1]; day 13 after CPH): 32.6 ± 5.22 millions | Cellularity of bone marrow (number of cells) ([1]; day 17 after CPH): 28.25 ± 3.02 millions | Cellularity of bone marrow (number of cells) ([1]; day 21 after CPH): 30.4 ± 2.75 millions | cells with apoptosis signs in bone marrow puncture biopsies [2]: rarely observed | Vt/Vt−1, M ± m (human M-6 melanoma; Dicarbamine 4.5 mg/kg p.o. days 15-36 + Cysplatin 6 mg/kg i.v. + Aranoza 40 mg/kg i.p., 25 Day): 182.0±60.0% and 182.0 + 60.0** % | Vt/Vt−1, M ± m (human M-6 melanoma; Dicarbamine + Cysplatin + Aranoza, 33 Day): 191.0 + 71.0% | Vt/Vt−1, M ± m (human M-6 melanoma; Dicarbamine + Cysplatin + Aranoza, 39 Day): 24.5 + 17.4% | Vt/Vt−1, M ± m (human M-6 melanoma; Dicarbamine + Cysplatin + Aranoza, 46 Day): 28.7 + 9.8% | Vt/Vt−1, M ± m (human M-6 melanoma; Dicarbamine + Cysplatin + Aranoza, 53 Day): 8.0 + 30.6% | Vt/Vt−1, M ± m (human M-6 melanoma; Dicarbamine alone 4.5/94.5 mg/kg p.o. days 15-36, 25 Day): 166.0±93.0% | Vt/Vt−1, M ± m (human M-6 melanoma; Dicarbamine alone, 33 Day): 276.0 ± 104.0% | Vt/Vt−1, M ± m (human M-6 melanoma; Dicarbamine alone, 39 Day): 39.8 ± 27.3% | Vt/Vt−1, M ± m (human M-6 melanoma; Dicarbamine alone, 46 Day): 19.6 ± 17.5% | Vt/Vt−1, M ± m (human M-6 melanoma; Dicarbamine alone, 53 Day): 4.2 + 22.5% | CR [3]: 26.6% | CR, number of patients [3]: 4 | PR [3]: 46.6% | PR, number of patients [3]: 7 | Progr. [3]: 13.3% | Progr., number of patients [3]: 2 | SB [3]: 13.5% | SB, number of patients [3]: 2 | tumor growth control (CR+PR) [3]: 73.2% | Initial rate of cell proliferation (% cells/colony relative to the control) ([4]; 48 hours): 30.8 ± 2.8% | Initial rate of cell proliferation (% cells/colony relative to the control) ([4]; 72 hours): 28.2 ± 2.2%

From patent US7759313B2, “Induction method for cell differentiation” (Obschetstvo S Ogranichennoi Otvetstvennostiyu …, priority 2002, dated 2010)
